“Also recorded” adds a separate entry of the source.
Test: Phase I trial, monotherapy: adverse events and DLTs
Type: in vivo, human
Conditions: for Drug-related G3-4 AEs / Dose-limiting toxicities (DLT): Part A; for Dose-limiting toxicities (DLT): once weekly IV monotherapy 60 to 480 mg/m^2
Source text: Pts with advanced solid tumors enrolled in 2 sequential parts.
Eleven of the subjects were given a once weekly dosage of Compound A-2 as a monotherapy. Six of the subjects were given a twice weekly dosage of Compound A-2 as a monotherapy. […] DLTs were defined according to the National Cancer Institute (NCI) CTCAE (Version 4).
In part A, single pt cohorts received a compound of Formula A-2 once weekly in 21-day cycles with 3+3 dose escalation cohorts being implemented if grade 2 drug-related adverse events (AEs) occurred. […] If a DLT was reported, the cohort was expanded to include 3 additional pts with subsequent dose escalation being permitted if no further DLTs occurred. Paired pre- and post-treatment biopsies from selected pts in part B were assessed for pCHK1 levels by immunohistochemistry. Models based on preclinical and clinical data were used to simulate hematologic toxicities and pCHK1 inhibition for pts treated with a compound of Formula A-2 and CP.

[1] = monotherapy 60 mg/m^2 Once Weekly (n = 1)
[2] = monotherapy 120 mg/m^2 Once Weekly (n = 2)
[3] = monotherapy 240 mg/m^2 Once Weekly (n = 1)
[4] = monotherapy 240 mg/m^2 Twice Weekly (n = 6)
[5] = monotherapy 480 mg/m^2 Once Weekly (n = 7)

Structure (SMILES): CNCc1ccc(-c2cc(-c3nc(-c4ccc(S(=O)(=O)C(C)C)cc4)cnc3N)on2)cc1 [Compound A-2]
- Drug-related G3-4 AEs (monotherapy): no
- Drug-related G3-4 AEs (monotherapy, listed as Formula A-2): none
- Dose-limiting toxicities (DLT): no dose-limiting toxicities; also recorded: no dose limiting toxicities
- Dose-limiting toxicities (DLT) (listed as Formula A-2): No DLTs
- Tolerability (as monotherapy and in combination with CP, CIS, or gem): well tolerated
- Treatment related adverse event: Any Event, All Grades [1]: 1 (100) n (%)
- Treatment related adverse event: Any Event, Grade ≥ 3 [1]: 0 n (%)
- Treatment related adverse event: Catheter site related reaction, All Grades [1]: 0 n (%)
- Treatment related adverse event: Catheter site related reaction, Grade ≥ 3 [1]: 0 n (%)
- Treatment related adverse event: Flushing, All Grades [1]: 0 n (%)
- Treatment related adverse event: Flushing, Grade ≥ 3 [1]: 0 n (%)
- Treatment related adverse event: Headache, All Grades [1]: 0 n (%)
- Treatment related adverse event: Headache, Grade ≥ 3 [1]: 0 n (%)
- Treatment related adverse event: Infusion related reaction, All Grades [1]: 0 n (%)
- Treatment related adverse event: Infusion related reaction, Grade ≥ 3 [1]: 0 n (%)
- Treatment related adverse event: Nausea, All Grades [1]: 0 n (%)
- Treatment related adverse event: Nausea, Grade ≥ 3 [1]: 0 n (%)
- Treatment related adverse event: Pruritus, All Grades [1]: 0 n (%)
- Treatment related adverse event: Pruritus, Grade ≥ 3 [1]: 0 n (%)
- Treatment related adverse event: Any Event, All Grades [2]: 4 (50.0) n (%)
- Treatment related adverse event: Any Event, Grade ≥ 3 [2]: 0 n (%)
- Treatment related adverse event: Catheter site related reaction, All Grades [2]: 0 n (%)
- Treatment related adverse event: Catheter site related reaction, Grade ≥ 3 [2]: 0 n (%)
- Treatment related adverse event: Flushing, All Grades [2]: 0 n (%)
- Treatment related adverse event: Flushing, Grade ≥ 3 [2]: 0 n (%)
- Treatment related adverse event: Headache, All Grades [2]: 0 n (%)
- Treatment related adverse event: Headache, Grade ≥ 3 [2]: 0 n (%)
- Treatment related adverse event: Infusion related reaction, All Grades [2]: 0 n (%)
- Treatment related adverse event: Infusion related reaction, Grade ≥ 3 [2]: 0 n (%)
- Treatment related adverse event: Nausea, All Grades [2]: 0 n (%)
- Treatment related adverse event: Nausea, Grade ≥ 3 [2]: 0 n (%)
- Treatment related adverse event: Pruritus, All Grades [2]: 0 n (%)
- Treatment related adverse event: Pruritus, Grade ≥ 3 [2]: 0 n (%)
- Treatment related adverse event: Any Event, All Grades [3]: 0 n (%)
- Treatment related adverse event: Any Event, Grade ≥ 3 [3]: 0 n (%)
- Treatment related adverse event: Catheter site related reaction, All Grades [3]: 0 n (%)
- Treatment related adverse event: Catheter site related reaction, Grade ≥ 3 [3]: 0 n (%)
- Treatment related adverse event: Flushing, All Grades [3]: 0 n (%)
- Treatment related adverse event: Flushing, Grade ≥ 3 [3]: 0 n (%)
- Treatment related adverse event: Headache, All Grades [3]: 0 n (%)
- Treatment related adverse event: Headache, Grade ≥ 3 [3]: 0 n (%)
- Treatment related adverse event: Infusion related reaction, All Grades [3]: 0 n (%)
- Treatment related adverse event: Infusion related reaction, Grade ≥ 3 [3]: 0 n (%)
- Treatment related adverse event: Nausea, All Grades [3]: 0 n (%)
- Treatment related adverse event: Nausea, Grade ≥ 3 [3]: 0 n (%)
- Treatment related adverse event: Pruritus, All Grades [3]: 0 n (%)
- Treatment related adverse event: Pruritus, Grade ≥ 3 [3]: 0 n (%)
- Treatment related adverse event: Any Event, All Grades [4]: 6 (100) n (%)
- Treatment related adverse event: Any Event, Grade ≥ 3 [4]: 1 (16.7) n (%)
- Treatment related adverse event: Catheter site related reaction, All Grades [4]: 2 (33.3) n (%)
- Treatment related adverse event: Catheter site related reaction, Grade ≥ 3 [4]: 0 n (%)
- Treatment related adverse event: Flushing, All Grades [4]: 1 (16.7) n (%)
- Treatment related adverse event: Flushing, Grade ≥ 3 [4]: 0 n (%)
- Treatment related adverse event: Headache, All Grades [4]: 0 n (%)
- Treatment related adverse event: Headache, Grade ≥ 3 [4]: 0 n (%)
- Treatment related adverse event: Infusion related reaction, All Grades [4]: 4 (16.7) n (%)
- Treatment related adverse event: Infusion related reaction, Grade ≥ 3 [4]: 0 n (%)
- Treatment related adverse event: Nausea, All Grades [4]: 0 n (%)
- Treatment related adverse event: Nausea, Grade ≥ 3 [4]: 0 n (%)
- Treatment related adverse event: Pruritus, All Grades [4]: 0 n (%)
- Treatment related adverse event: Pruritus, Grade ≥ 3 [4]: 0 n (%)
- Treatment related adverse event: Any Event, All Grades [5]: 7 (100) n (%)
- Treatment related adverse event: Any Event, Grade ≥ 3 [5]: 0 n (%)
- Treatment related adverse event: Catheter site related reaction, All Grades [5]: 0 n (%)
- Treatment related adverse event: Catheter site related reaction, Grade ≥ 3 [5]: 0 n (%)
- Treatment related adverse event: Flushing, All Grades [5]: 3 (42.9) n (%)
- Treatment related adverse event: Flushing, Grade ≥ 3 [5]: 0 n (%)
- Treatment related adverse event: Headache, All Grades [5]: 2 (28.6) n (%)
- Treatment related adverse event: Headache, Grade ≥ 3 [5]: 0 n (%)
- Treatment related adverse event: Infusion related reaction, All Grades [5]: 1 (14.3) n (%)
- Treatment related adverse event: Infusion related reaction, Grade ≥ 3 [5]: 0 n (%)
- Treatment related adverse event: Nausea, All Grades [5]: 2 (28.6) n (%)
- Treatment related adverse event: Nausea, Grade ≥ 3 [5]: 0 n (%)
- Treatment related adverse event: Pruritus, All Grades [5]: 2 (28.6) n (%)
- Treatment related adverse event: Pruritus, Grade ≥ 3 [5]: 0 n (%)
- Treatment related adverse event: Any Event, All Grades (monotherapy, Total (N = 17)): 15 (88.2) n (%)
- Treatment related adverse event: Any Event, Grade ≥ 3 (monotherapy, Total (N = 17)): 1 (5.9) n (%)
- Treatment related adverse event: Catheter site related reaction, All Grades (monotherapy, Total (N = 17)): 2 (11.8) n (%)
- Treatment related adverse event: Catheter site related reaction, Grade ≥ 3 (monotherapy, Total (N = 17)): 0 n (%)
- Treatment related adverse event: Flushing, All Grades (monotherapy, Total (N = 17)): 4 (23.5) n (%)
- Treatment related adverse event: Flushing, Grade ≥ 3 (monotherapy, Total (N = 17)): 0 n (%)
- Treatment related adverse event: Headache, All Grades (monotherapy, Total (N = 17)): 2 (11.8) n (%)
- Treatment related adverse event: Headache, Grade ≥ 3 (monotherapy, Total (N = 17)): 0 n (%)
- Treatment related adverse event: Infusion related reaction, All Grades (monotherapy, Total (N = 17)): 2 (11.8) n (%)
- Treatment related adverse event: Infusion related reaction, Grade ≥ 3 (monotherapy, Total (N = 17)): 0 n (%)
- Treatment related adverse event: Nausea, All Grades (monotherapy, Total (N = 17)): 2 (11.8) n (%)
- Treatment related adverse event: Nausea, Grade ≥ 3 (monotherapy, Total (N = 17)): 0 n (%)
- Treatment related adverse event: Pruritus, All Grades (monotherapy, Total (N = 17)): 2 (11.8) n (%)
- Treatment related adverse event: Pruritus, Grade ≥ 3 (monotherapy, Total (N = 17)): 0 n (%)
- Dose at which adverse events began (once weekly monotherapy): 480 mg/m^2

— patent US20230106592A1, “METHOD FOR TREATING CANCER USING A COMBINATION OF DNA DAMAGING AGENTS AND ATR INHIBITORS” (Vertex Pharmaceuticals Incorporated, priority 2015, published 2023)
